# Read-outs that look alike come from different tables or passages of the source.
# Key:
# [1] = Example 6: NFA of saxagliptin in saxagliptin/Opadry II films with amino acids (HPLC); format: physicochemical; conditions: for % NFA (as a % of saxagliptin peak): Saxagliptin/Opadry II films, amino acid 2% w/w in dispersion, sealed vials 60° C. five days, control without amine 2.63
# [2] = Saxagliptin Hydrochloride/Opadry II films, amino acid 2% w/w in dispersion, 60° C. five days; control without amine 2.73
# [3] = Example 4: NFA of saxagliptin in saxagliptin/Opadry II films with amine compounds (HPLC); format: physicochemical; conditions: amine 2% w/w in dispersion, sealed vials 60° C. five days, control without amine 2.63
# [4] = format: physicochemical; conditions: Saxagliptin Hydrochloride/Opadry II films, amine 2% w/w in dispersion, 60° C. five days; control without amine 2.73
protecting saxagliptin from reaction with formyl species (rank among amino acids) ([1]; saxagliptin and saxagliptin hydrochloride Opadry II films),% NFA (as a % of saxagliptin peak) [3] [%],% NFA (as a % of saxagliptin peak) [4] [%],SMILES,% NFA (as a % of saxagliptin peak) [1] [%],% NFA (as a % of saxagliptin peak) [2] [%],"extraneous peaks in the chromatogram ([1]; saxagliptin and saxagliptin hydrochloride Opadry II films, HPLC)"
most potent,,,"NCC(=O)O [Glycine, glycine]",0,0,
,,,"N[C@@H](Cc1c[nH]cn1)C(=O)O [Histidine, histidine]",1.68,,
,3.61,0.62,"OCCNCCO [Diethanolamine, diethanolamine]",,,
,,,"N=C(N)NCCC[C@H](N)C(=O)O [Arginine, arginine]",0,0,formation of extraneous unidentified peaks
,0,0,"NCCO [Ethanolamine, ethanolamine]",,,
,,,"NCCCC[C@H](N)C(=O)O [Lysine, lysine]",2.84,2.08,

# From patent US20140079778A1, “Pharmaceutical Formulations Including An Amine Compound” (AstraZeneca UK Limited, priority 2011, published 2014)
